Measurements published in patent US5095018A, “3-benzyl-1,2,4-triazolo[4,3-α] pyrazines” (Burroughs Wellcome Co., priority 1989, dated 1992).
Read-outs that look alike come from different tables or passages of the source.

Assay: standard maximal electroshock test (MES), anticonvulsant activity
Format: in vivo
Conditions: HCl salt
Method: The anticonvulsant activity of certain compounds of the present invention were determined by a standard maximal electroshock test (MES); that described by L. A. Woodbury and V. D. Davenport, Arch. Int. Pharmacodyn, 1952, 92 95.

[1] = ip, intraperitoneal (I.P.), read-out: ED50 I.P.
[2] = oral (P.O.), read-out: ED50 P.O.

Compound | ED50 [1] | ED50 [2]
Nc1nccn2c(Cc3ccccc3F)nnc12 [Example 2, 8-amino-3-(2-fluorobenzyl)-1,2,4-triazolo[4,3-a]pyrazine] | 9.4 mg/kg | 8 mg/kg
Nc1nccn2c(Cc3c(F)cccc3F)nnc12 [Example 9, 8-amino-3-(2,6-difluorobenzyl)-1,2,4-triazolo[4,3-a]pyrazine] | 3.1 mg/kg | 7.1 mg/kg
CNc1nccn2c(Cc3c(F)cccc3F)nnc12 [Example 8, 3-(2,6-difluorobenzyl)-8-(methylamino)-1,2,4-triazolo[4,3-a]pyrazine] | 2 mg/kg | 3 mg/kg
Fc1ccccc1Cc1nnc2c(NC3CC3)nccn12 [Example 11, 8-(cyclopropylamino)-3-(2-fluorobenzyl)-1,2,4-triazolo[4,3-a]pyrazine] | 9.4 mg/kg | –
CNc1nccn2c(Cc3cccc(F)c3)nnc12 [Example 4, 3-(3-fluorobenzyl)-8-(methylamino)-1,2,4-triazolo[4,3-a]pyrazine] | 4.1 mg/kg | 20.4 mg/kg
Fc1cccc(F)c1Cc1nnc2c(NC3CC3)nccn12 [Example 10, 8-(cyclopropylamino)-3-(2,6-difluorobenzyl)-1,2,4-triazolo[4,3-a]pyrazine] | 7.2 mg/kg | –
Nc1nccn2c(Cc3cc(F)ccc3F)nnc12 [Example 7, 8-amino-3-(2,5-difluorobenzyl)-1,2,4-triazolo[4,3-a]pyrazine] | 7.1 mg/kg | 20.4 mg/kg
CNc1nccn2c(Cc3ccccc3F)nnc12 [Example 1, 3-(2-fluorobenzyl)-8-(methylamino)-1,2,4-triazolo[4,3-a]pyrazine] | 4.1 mg/kg | 8.3 mg/kg
CNc1nccn2c(Cc3ccc(F)cc3)nnc12 [Example 5, 3-(4-fluorobenzyl)-8-(methylamino)-1,2,4-triazolo[4,3-a]pyrazine] | 25 mg/kg | –
CNc1nccn2c(Cc3ccccc3)nnc12 [Example 3, 3-Benzyl-8-(methylamino)-1,2,4-triazolo[4,3-a]pyrazine] | 6.2 mg/kg | 15.6 mg/kg
CNc1nccn2c(Cc3cc(F)ccc3F)nnc12 [Example 6, 3-(2,5-difluorobenzyl)-8-(methylamino)-1,2,4-triazolo[4,3-a]pyrazine] | 4 mg/kg | 10.2 mg/kg
